Source: patent US4695545A, “Culture and process for producing A41030 antibiotics” (Eli Lilly and Company, priority 1984, dated 1987)

Tests used:
[1] = system: Streptococcus sp. Group D; assay: MIC aerobic bacteria, standard agar-dilution assay; type: cell-based
Peptococcus prevoti = assay: MIC anaerobic bacteria, agar-dilution; type: cell-based; details: Peptococcus prevoti 1281
Solubility in solvents = type: physicochemical; details: qualitative
From the text: As many as seven antibiotic factors are recovered from the fermentation and are obtained as a mixture, the A41030 complex. It will be recognized that the ratio of the factors in the A41030 complex will vary, depending upon the fermentation conditions used. The individual factors A, B, C, D, E, F, and G are separated and isolated as individual compounds, as hereinafter described.

Clostridium difficile [2] = assay: MIC anaerobic bacteria, agar-dilution; type: cell-based; details: Clostridium difficile 2994; agar-dilution (Table 9)
Streptococcus pneumoniae = assay: MIC aerobic bacteria, standard agar-dilution assay; type: cell-based; details: Streptococcus pneumoniae Park I, 24 hours
[3] = system: Peptococcus asaccharolyticus; assay: MIC anaerobic bacteria, agar-dilution; type: cell-based; details: Peptococcus asaccharolyticus 1302
Clostridium difficile [4] = assay: MIC against Clostridium difficile strains, agar-dilution; type: cell-based
From the text: The A41030 antibiotic factors A, B, C, D, E, F, and G, are also active against a number of strains of Clostridium difficile, as determined by the agardilution method.

Haemophilus influenzae = assay: MIC aerobic bacteria, standard agar-dilution assay; type: cell-based
Bacteroides fragilis = assay: MIC anaerobic bacteria, agar-dilution; type: cell-based
Streptococcus pyogenes = assay: MIC aerobic bacteria, standard agar-dilution assay; type: cell-based; details: Streptococcus pyogenes C203, 24 hours
S. pyogenes = assay: In vivo oral activity against S. pyogenes in mice
[5] = system: Bacteroides thetaiotaomicron; assay: MIC anaerobic bacteria, agar-dilution; type: cell-based; details: Bacteroides thetaiotaomicron 1438
[6] = system: Staphylococcus epidermidis; assay: MIC aerobic bacteria, standard agar-dilution assay; type: cell-based
[7] = system: Fusobacterium necrophorum; assay: MIC anaerobic bacteria, agar-dilution; type: cell-based; details: Fusobacterium necrophorum 6054A
Propionibacterium acnes [8] = assay: MIC against Propionibacterium acnes strains, 24-hour agar-dilution; type: cell-based
From the text: Antibiotic A41030 factors A, B and C have been tested and found to be active against a genus of anaerobic bacteria identified as Propionibacterium acnes.

Bacteroides vulgatis = assay: MIC anaerobic bacteria, agar-dilution; type: cell-based; details: Bacteroides vulgatis 1211
Clostridium perfringens = type: cell-based; details: Clostridium perfringens 81; agar-dilution
Propionibacterium acnes [9] = assay: MIC anaerobic bacteria, agar-dilution; type: cell-based; details: Propionibacterium acnes 79; agar-dilution (Table 9)
[10] = system: Peptostreptococcus anaerobius; assay: MIC anaerobic bacteria, agar-dilution; type: cell-based; details: Peptostreptococcus anaerobius 1428
[11] = system: Bacteroides melaninogenicus; assay: MIC anaerobic bacteria, agar-dilution; type: cell-based; details: Bacteroides melaninogenicus 2736
[12] = Electrometric titration (pKa); type: physicochemical; details: electrometric titration in 66% dimethylformamide in water
From the text: Antibiotic A41030 factor A is a white, crystalline solid.

Bacteroides corrodens = assay: MIC anaerobic bacteria, agar-dilution; type: cell-based; details: Bacteroides corrodens 1874
Fusobacterium symbiosum = assay: MIC anaerobic bacteria, agar-dilution; type: cell-based; details: Fusobacterium symbiosum 1470
Clostridium septicum = assay: MIC anaerobic bacteria, agar-dilution; type: cell-based; details: Clostridium septicum 1128
[13] = system: Peptostreptococcus intermedius; assay: MIC anaerobic bacteria, agar-dilution; type: cell-based; details: Peptostreptococcus intermedius 1264
Klebsiella pneumoniae = assay: MIC aerobic bacteria, standard agar-dilution assay; type: cell-based; details: Klebsiella pneumoniae X26, 24 hours
Eubacterium aerofaciens = assay: MIC anaerobic bacteria, agar-dilution; type: cell-based; details: Eubacterium aerofaciens 1235
[14] = Streptococcus sp. Group D 9960, 24 hours
[15] = Streptococcus sp. Group D X66, 24 hours
[16] = Staphylococcus epidermidis EPI1, 24 hours

Q: Which MIC [1, 14] does the source give for A41030 factor C here?
A: 4 µg/mL

Q: What about the MIC [1, 15] of the same substance?
A: 2 µg/mL

Q: And the MIC (Peptococcus prevoti)?
A: ≤ 0.25 µg/mL

Q: And the “solubility (solvents)” value (Solubility in solvents)?
A: soluble in the same solvents as factor A

Q: And the MIC (Clostridium difficile [2])?
A: 16 µg/mL

Q: What about the MIC (Streptococcus pneumoniae) of the same substance?
A: 1 µg/mL

Q: And the MIC [3]?
A: ≤ 0.25 µg/mL

Q: What about the MIC (Clostridium difficile [4]; Clostridium difficile 78) of the same substance?
A: 1.0 µg/mL

Q: What about the MIC (Clostridium difficile [4]; Clostridium difficile 107B) of the same substance?
A: 1.0 µg/mL

Q: And the MIC (Clostridium difficile [4]; Clostridium difficile 111F)?
A: 2 µg/mL

Q: And the MIC (Clostridium difficile [4]; Clostridium difficile 1153)?
A: 2 µg/mL

Q: What about the MIC (Clostridium difficile [4]; Clostridium difficile 2634) of the same substance?
A: 2 µg/mL

Q: What about the MIC (Clostridium difficile [4]; Clostridium difficile 3424-5B) of the same substance?
A: 1.0 µg/mL

Q: What about the MIC (Clostridium difficile [4]; Clostridium difficile 3816) of the same substance?
A: 2 µg/mL

Q: And the MIC (Clostridium difficile [4]; Clostridium difficile 3950D)?
A: 2 µg/mL

Q: And the MIC (Clostridium difficile [4]; Clostridium difficile 6890)?
A: 2 µg/mL

Q: And the MIC (Clostridium difficile [4]; Clostridium difficile 8484)?
A: 1.0 µg/mL

Q: What about the MIC (Clostridium difficile [4]; Clostridium difficile A-194) of the same substance?
A: 2 µg/mL

Q: What about the MIC (Clostridium difficile [4]; Clostridium difficile A-195) of the same substance?
A: 1.0 µg/mL

Q: What about the MIC (Clostridium difficile [4]; Clostridium difficile A-196) of the same substance?
A: 2 µg/mL

Q: And the MIC (Clostridium difficile [4]; Clostridium difficile A-279)?
A: 2 µg/mL

Q: What about the MIC (Clostridium difficile [4]; Clostridium difficile A-280) of the same substance?
A: 1.0 µg/mL

Q: What about the MIC (Clostridium difficile [4]; Clostridium difficile A-281) of the same substance?
A: 2 µg/mL

Q: And the MIC (Clostridium difficile [4]; Clostridium difficile WAL-2112)?
A: 2 µg/mL

Q: And the MIC (Clostridium difficile [4]; Clostridium difficile WAL-3657)?
A: 2 µg/mL

Q: What about the MIC (Clostridium difficile [4]; Clostridium difficile WAL-4268) of the same substance?
A: 1.0 µg/mL

Q: What about the MIC (Haemophilus influenzae; Haemophilus influenzae 251, 24 hours) of the same substance?
A: 4 µg/mL

Q: And the MIC (Haemophilus influenzae; Haemophilus influenzae Brun, 24 hours)?
A: 16 µg/mL

Q: What about the MIC (Bacteroides fragilis; Bacteroides fragilis 1877) of the same substance?
A: 16 µg/mL

Q: What about the MIC (Bacteroides fragilis; Bacteroides fragilis 1936B) of the same substance?
A: 32 µg/mL

Q: What about the MIC (Streptococcus pyogenes) of the same substance?
A: 1 µg/mL

Q: And the “in vivo oral activity” value (S. pyogenes)?
A: > 300 mg./kg.×2

Q: And the MIC [5]?
A: 64 µg/mL

Q: And the MIC [6, 16]?
A: 0.5 µg/mL

Q: And the MIC [7]?
A: 16 µg/mL

Q: And the MIC (Propionibacterium acnes [8]; P. acnes strain 104)?
A: 0.25 µg/mL

Q: What about the MIC (Propionibacterium acnes [8]; P. acnes strain 5170) of the same substance?
A: ≤ 0.03 µg/mL

Q: What about the MIC (Propionibacterium acnes [8]; P. acnes strain 5176) of the same substance?
A: ≤ 0.03 µg/mL

Q: And the MIC (Propionibacterium acnes [8]; P. acnes strain 5187)?
A: 0.06 µg/mL

Q: And the MIC (Propionibacterium acnes [8]; P. acnes strain 5197)?
A: ≤ 0.03 µg/mL

Q: What about the MIC (Propionibacterium acnes [8]; P. acnes strain 5227) of the same substance?
A: 0.06 µg/mL

Q: And the MIC (Propionibacterium acnes [8]; P. acnes strain 5228)?
A: 1.0 µg/mL

Q: What about the MIC (Propionibacterium acnes [8]; P. acnes strain 5229) of the same substance?
A: 0.5 µg/mL

Q: What about the MIC (Propionibacterium acnes [8]; P. acnes strain 5246) of the same substance?
A: 0.06 µg/mL

Q: What about the MIC (Propionibacterium acnes [8]; P. acnes strain 5292) of the same substance?
A: 0.06 µg/mL

Q: And the MIC (Bacteroides vulgatis)?
A: 32 µg/mL

Q: What about the MIC (Clostridium perfringens) of the same substance?
A: 1.0 µg/mL

Q: And the MIC (Propionibacterium acnes [9])?
A: ≤ 0.25 µg/mL

Q: What about the MIC [10] of the same substance?
A: ≤ 0.25 µg/mL

Q: What about the MIC [11] of the same substance?
A: 4 µg/mL

Q: What about the “pKa, second titratable group” value [12] of the same substance?
A: ~7.1

Q: What about the “possibly additional pKa's” value ([12]; stated as possible) of the same substance?
A: > 10

Q: And the MIC (Bacteroides corrodens)?
A: 32 µg/mL

Q: What about the MIC (Fusobacterium symbiosum) of the same substance?
A: 1.0 µg/mL

Q: What about the MIC (Clostridium septicum) of the same substance?
A: 8 µg/mL

Q: Which MIC [13] does the source give for A41030 factor G here?
A: 2 µg/mL

Q: What about the MIC [1, 14] of the same substance?
A: 4 µg/mL

Q: What about the MIC [1, 15] of the same substance?
A: 4 µg/mL

Q: What about the MIC (Peptococcus prevoti) of the same substance?
A: 2 µg/mL

Q: And the “solubility (solvents)” value (Solubility in solvents)?
A: soluble in the same solvents as is factor A

Q: What about the MIC (Clostridium difficile [2]) of the same substance?
A: 2 µg/mL

Q: What about the MIC (Streptococcus pneumoniae) of the same substance?
A: 2 µg/mL

Q: What about the MIC [3] of the same substance?
A: 1.0 µg/mL

Q: What about the MIC (Clostridium difficile [4]; Clostridium difficile 78) of the same substance?
A: 1.0 µg/mL

Q: And the MIC (Clostridium difficile [4]; Clostridium difficile 107B)?
A: 1.0 µg/mL

Q: And the MIC (Clostridium difficile [4]; Clostridium difficile 111F)?
A: 1.0 µg/mL

Q: What about the MIC (Clostridium difficile [4]; Clostridium difficile 1153) of the same substance?
A: 1.0 µg/mL

Q: And the MIC (Clostridium difficile [4]; Clostridium difficile 2634)?
A: 1.0 µg/mL

Q: What about the MIC (Clostridium difficile [4]; Clostridium difficile 3424-5B) of the same substance?
A: 1.0 µg/mL

Q: What about the MIC (Clostridium difficile [4]; Clostridium difficile 3816) of the same substance?
A: 1.0 µg/mL

Q: What about the MIC (Clostridium difficile [4]; Clostridium difficile 3950D) of the same substance?
A: 1.0 µg/mL

Q: What about the MIC (Clostridium difficile [4]; Clostridium difficile 6890) of the same substance?
A: 1.0 µg/mL

Q: What about the MIC (Clostridium difficile [4]; Clostridium difficile 8484) of the same substance?
A: 1.0 µg/mL

Q: What about the MIC (Clostridium difficile [4]; Clostridium difficile A-194) of the same substance?
A: 1.0 µg/mL

Q: And the MIC (Clostridium difficile [4]; Clostridium difficile A-195)?
A: 1.0 µg/mL

Q: And the MIC (Clostridium difficile [4]; Clostridium difficile A-196)?
A: 1.0 µg/mL

Q: What about the MIC (Clostridium difficile [4]; Clostridium difficile A-279) of the same substance?
A: 1.0 µg/mL

Q: What about the MIC (Clostridium difficile [4]; Clostridium difficile A-280) of the same substance?
A: 1.0 µg/mL

Q: And the MIC (Clostridium difficile [4]; Clostridium difficile A-281)?
A: 1.0 µg/mL

Q: And the MIC (Clostridium difficile [4]; Clostridium difficile WAL-2112)?
A: 1.0 µg/mL

Q: And the MIC (Clostridium difficile [4]; Clostridium difficile WAL-3657)?
A: 1.0 µg/mL

Q: What about the MIC (Clostridium difficile [4]; Clostridium difficile WAL-4268) of the same substance?
A: 1.0 µg/mL

Q: What about the MIC (Haemophilus influenzae; Haemophilus influenzae 76, 24 hours) of the same substance?
A: 32 µg/mL

Q: What about the MIC (Haemophilus influenzae; Haemophilus influenzae C.L., 24 hours) of the same substance?
A: 32 µg/mL

Q: And the MIC (Bacteroides fragilis; Bacteroides fragilis 111)?
A: 32 µg/mL

Q: What about the MIC (Bacteroides fragilis; Bacteroides fragilis 1877) of the same substance?
A: 32 µg/mL

Q: And the MIC (Bacteroides fragilis; Bacteroides fragilis 1936B)?
A: 64 µg/mL

Q: What about the MIC (Streptococcus pyogenes) of the same substance?
A: 2 µg/mL

Q: What about the MIC [5] of the same substance?
A: 64 µg/mL

Q: What about the MIC [6, 16] of the same substance?
A: 0.5 µg/mL

Q: What about the MIC ([6]; Staphylococcus epidermidis EPI2, 24 hours) of the same substance?
A: 0.5 µg/mL

Q: What about the MIC [7] of the same substance?
A: 2 µg/mL

Q: And the MIC (Bacteroides vulgatis)?
A: 64 µg/mL

Q: And the MIC (Clostridium perfringens)?
A: 2 µg/mL

Q: And the MIC (Propionibacterium acnes [9])?
A: 1.0 µg/mL

Q: What about the MIC [10] of the same substance?
A: ≤ 0.5 µg/mL

Q: And the MIC [11]?
A: 64 µg/mL

Q: And the MIC (Klebsiella pneumoniae)?
A: 64 µg/mL

Q: What about the MIC (Bacteroides corrodens) of the same substance?
A: 32 µg/mL

Q: What about the MIC (Fusobacterium symbiosum) of the same substance?
A: 2 µg/mL

Q: What about the MIC (Eubacterium aerofaciens) of the same substance?
A: 2 µg/mL

Q: What about the MIC (Clostridium septicum) of the same substance?
A: 2 µg/mL
